In patent US6458781B1, “Substituted diarylalkyl amides as calcium channel antagonists” (priority 1998, dated 2002):
Structures can show the parent of a compound that is named as a salt.

Key:
[1] = test system: acetic acid-induced writhing in Swiss-Webster mice; experiment: Anti-writhing test in mice (AW); format: in vivo; settings: 10 mg/kg
Excerpt: Anti-Writhing Test in Mice (AW) Test Protocol
The purpose of this test is to evaluate drugs for analgesic-like activity. The AW test determines the effect of drugs on the response to a presumed painful stimulus in mice and is used as a preliminary in vivo procedure for the identification of potential analgesic agents.
Known analgesics with low, moderate, or high efficacy in man allow mice to tolerate intra-peritoneal administration of dilute acetic acid as evidenced by lesser incidence of writhing movements. The AW test measures the nociceptive response to acetic acid in mice and provides an objective, reliable, and quantitative estimate of efficacy and potency of potential analgesic compounds. This test serves as a preclinical predictor of analgesic activity.
Subjects are male Swiss-Webster mice (25-35 g).
Compounds are dissolved or suspended in physiological saline containing 2% Emulphor. Suspensions are subjected to ultrasonication for 3 minutes. Drug doses are expressed as the active moiety and are normally administered to mice (10, 30, and 100 mg/kg IP, SC, PO, or IM) in a volume of 10 mL/kg, 1 hour prior to testing; ICV doses (in μg/kg) are administered in a volume of 0.5 mL/kg, 5 minutes prior to testing. Animals dosed PO are fasted for 16 hours prior to dosing. Groups of eight mice are tested with each dose or the vehicle solution (control group).
Mice are treated with a dilute solution of acetic acid (0.6%, 10 mL/kg IP) which elicits writhing. In four successive trials, one pair of mice from each treatment group is placed in one of four adjacent clear plexiglas chambers (4 in×4 in×4 in). This allows the simultaneous observation of four pairs of mice representing all treatments and controls throughout the test. Writhing movements (abdominal contractions, stretching of the torso and hind legs, and concave arching of the back) are counted for 5 minutes commencing 7 minutes after acetic acid administration.
Drug effects on acetic acid-induced writhing are expressed as percent suppression of writhing relative to the vehicle-treated control group run in parallel with treated animals. The writhing tallies from pairs of animals are summed for each treatment and are divided by the summed writhing in the control group. The ED50s for suppression of writhing are determined by nonlinear regression analysis.

[2] = target: T1, N-type calcium channels in IMR32 human neuroblastoma cells (Homo sapiens, UniProt Q00975); experiment: FLPIMR assay (FLIPR, IMR32 cells); format: cell-based; settings: nitrendipine present, read-out: FLP IMR IC50
T1 construct: expressing neuronal N-type calcium channels upon differentiation, was used for this assay; host or cells: IMR32 human neuroblastoma cells differentiated with dibutyryl cAMP and 5-bromo-2-deoxyuridine
T1 sequence (Q00975 whole entry): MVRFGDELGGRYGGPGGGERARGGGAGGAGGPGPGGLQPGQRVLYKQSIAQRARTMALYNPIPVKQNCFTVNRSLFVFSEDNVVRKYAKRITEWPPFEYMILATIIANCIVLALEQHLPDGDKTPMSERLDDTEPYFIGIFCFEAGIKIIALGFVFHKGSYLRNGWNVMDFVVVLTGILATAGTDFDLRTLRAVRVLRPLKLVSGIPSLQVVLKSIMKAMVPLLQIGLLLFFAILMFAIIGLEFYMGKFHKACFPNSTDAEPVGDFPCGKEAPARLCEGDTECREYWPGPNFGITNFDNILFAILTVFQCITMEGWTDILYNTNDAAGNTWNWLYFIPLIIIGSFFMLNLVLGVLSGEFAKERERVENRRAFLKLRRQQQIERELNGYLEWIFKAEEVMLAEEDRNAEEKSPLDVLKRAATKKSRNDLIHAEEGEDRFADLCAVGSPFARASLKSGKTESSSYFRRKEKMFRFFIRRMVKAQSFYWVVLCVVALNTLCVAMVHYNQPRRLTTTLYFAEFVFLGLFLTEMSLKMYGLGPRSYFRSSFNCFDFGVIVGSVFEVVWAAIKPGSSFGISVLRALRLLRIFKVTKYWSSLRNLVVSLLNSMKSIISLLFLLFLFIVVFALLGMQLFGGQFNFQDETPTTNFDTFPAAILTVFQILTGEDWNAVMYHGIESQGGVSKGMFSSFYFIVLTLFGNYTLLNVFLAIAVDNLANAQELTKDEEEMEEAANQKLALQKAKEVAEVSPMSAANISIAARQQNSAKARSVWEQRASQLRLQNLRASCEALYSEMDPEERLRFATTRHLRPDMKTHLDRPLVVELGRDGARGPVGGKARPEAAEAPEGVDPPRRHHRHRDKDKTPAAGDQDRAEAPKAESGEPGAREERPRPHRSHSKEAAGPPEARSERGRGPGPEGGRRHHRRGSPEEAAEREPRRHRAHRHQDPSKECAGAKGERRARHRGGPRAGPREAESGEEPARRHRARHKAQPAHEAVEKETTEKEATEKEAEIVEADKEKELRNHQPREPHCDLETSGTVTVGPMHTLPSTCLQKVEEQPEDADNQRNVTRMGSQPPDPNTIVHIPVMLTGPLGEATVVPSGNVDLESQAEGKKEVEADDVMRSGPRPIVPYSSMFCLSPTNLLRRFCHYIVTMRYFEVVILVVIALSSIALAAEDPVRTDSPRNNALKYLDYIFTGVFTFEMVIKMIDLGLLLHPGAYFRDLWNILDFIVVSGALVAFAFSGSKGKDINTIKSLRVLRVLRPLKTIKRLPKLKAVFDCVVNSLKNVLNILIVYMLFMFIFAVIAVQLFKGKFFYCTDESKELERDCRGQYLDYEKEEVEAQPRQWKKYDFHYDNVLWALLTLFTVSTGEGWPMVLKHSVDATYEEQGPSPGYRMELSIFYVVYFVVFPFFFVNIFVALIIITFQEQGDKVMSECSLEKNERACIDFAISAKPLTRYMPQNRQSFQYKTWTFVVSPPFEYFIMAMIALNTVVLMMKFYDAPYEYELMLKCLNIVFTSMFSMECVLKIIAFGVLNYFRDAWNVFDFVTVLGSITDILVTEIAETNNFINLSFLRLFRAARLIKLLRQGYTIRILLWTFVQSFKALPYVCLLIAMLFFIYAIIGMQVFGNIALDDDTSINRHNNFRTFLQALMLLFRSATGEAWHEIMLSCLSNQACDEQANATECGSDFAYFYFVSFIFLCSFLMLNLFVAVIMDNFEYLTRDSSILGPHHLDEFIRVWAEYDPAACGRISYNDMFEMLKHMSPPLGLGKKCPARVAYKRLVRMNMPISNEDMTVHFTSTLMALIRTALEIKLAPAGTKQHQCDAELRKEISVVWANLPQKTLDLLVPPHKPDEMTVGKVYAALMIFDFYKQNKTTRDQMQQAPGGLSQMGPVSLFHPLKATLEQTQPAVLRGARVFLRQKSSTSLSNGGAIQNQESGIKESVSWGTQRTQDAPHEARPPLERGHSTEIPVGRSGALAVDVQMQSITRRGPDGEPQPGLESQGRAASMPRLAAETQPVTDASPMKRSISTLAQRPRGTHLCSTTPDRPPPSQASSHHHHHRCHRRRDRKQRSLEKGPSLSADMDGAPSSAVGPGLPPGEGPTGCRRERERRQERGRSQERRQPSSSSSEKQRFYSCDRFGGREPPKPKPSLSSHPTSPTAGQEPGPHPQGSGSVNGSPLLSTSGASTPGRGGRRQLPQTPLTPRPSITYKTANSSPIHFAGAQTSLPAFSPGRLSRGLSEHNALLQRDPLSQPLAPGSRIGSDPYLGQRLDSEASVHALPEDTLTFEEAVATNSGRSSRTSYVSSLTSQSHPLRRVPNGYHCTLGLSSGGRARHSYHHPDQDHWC
T1 sequence (P54289 25-956 partner limits assumed): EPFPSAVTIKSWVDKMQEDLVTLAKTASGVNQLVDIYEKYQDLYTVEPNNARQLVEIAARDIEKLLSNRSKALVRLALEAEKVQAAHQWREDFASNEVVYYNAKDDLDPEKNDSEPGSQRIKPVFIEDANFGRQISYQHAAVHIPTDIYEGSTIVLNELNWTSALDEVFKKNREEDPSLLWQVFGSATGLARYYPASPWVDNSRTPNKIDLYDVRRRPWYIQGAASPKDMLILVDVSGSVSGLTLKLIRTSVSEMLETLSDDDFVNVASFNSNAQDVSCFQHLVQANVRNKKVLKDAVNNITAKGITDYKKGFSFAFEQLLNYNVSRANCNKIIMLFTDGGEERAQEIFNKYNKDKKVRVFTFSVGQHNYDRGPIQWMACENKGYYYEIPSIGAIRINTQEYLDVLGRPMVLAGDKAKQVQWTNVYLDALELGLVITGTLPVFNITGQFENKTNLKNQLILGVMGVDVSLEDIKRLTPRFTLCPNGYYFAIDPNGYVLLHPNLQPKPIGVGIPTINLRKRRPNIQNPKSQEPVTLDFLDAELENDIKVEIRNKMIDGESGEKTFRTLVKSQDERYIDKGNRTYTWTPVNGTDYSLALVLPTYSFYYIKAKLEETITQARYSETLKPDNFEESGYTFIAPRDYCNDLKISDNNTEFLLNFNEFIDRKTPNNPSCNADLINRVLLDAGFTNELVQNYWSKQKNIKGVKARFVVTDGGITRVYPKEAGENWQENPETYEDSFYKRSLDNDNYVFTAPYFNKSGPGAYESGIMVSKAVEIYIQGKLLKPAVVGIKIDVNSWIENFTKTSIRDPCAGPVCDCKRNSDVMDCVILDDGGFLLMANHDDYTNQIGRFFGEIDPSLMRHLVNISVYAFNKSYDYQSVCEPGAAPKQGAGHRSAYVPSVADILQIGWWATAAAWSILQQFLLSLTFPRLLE
T1 sequence (P54289 957-1103 partner limits assumed): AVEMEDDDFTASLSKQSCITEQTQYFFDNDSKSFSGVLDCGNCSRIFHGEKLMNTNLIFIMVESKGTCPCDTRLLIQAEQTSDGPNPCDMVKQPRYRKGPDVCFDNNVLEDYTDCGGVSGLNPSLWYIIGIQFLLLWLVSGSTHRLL
T1 sequence (Q02641 whole entry partner): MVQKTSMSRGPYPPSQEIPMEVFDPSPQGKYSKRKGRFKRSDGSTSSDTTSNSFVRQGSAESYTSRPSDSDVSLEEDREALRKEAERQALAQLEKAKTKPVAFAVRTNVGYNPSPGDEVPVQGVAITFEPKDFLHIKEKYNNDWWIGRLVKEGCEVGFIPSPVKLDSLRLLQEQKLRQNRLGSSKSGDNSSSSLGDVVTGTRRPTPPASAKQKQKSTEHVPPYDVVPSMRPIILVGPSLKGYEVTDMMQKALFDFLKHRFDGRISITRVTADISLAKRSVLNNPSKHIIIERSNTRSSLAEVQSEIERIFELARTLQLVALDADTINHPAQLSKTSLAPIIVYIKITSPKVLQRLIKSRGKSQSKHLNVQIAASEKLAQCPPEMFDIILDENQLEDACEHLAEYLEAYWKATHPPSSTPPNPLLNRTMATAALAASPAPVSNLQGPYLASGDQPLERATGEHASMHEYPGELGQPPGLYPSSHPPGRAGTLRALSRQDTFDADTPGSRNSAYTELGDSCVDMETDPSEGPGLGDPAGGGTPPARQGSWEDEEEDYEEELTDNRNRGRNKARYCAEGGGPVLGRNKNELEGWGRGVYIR
Experimental: In Vitro Protocol: FLPIMR Assays
Calcium flux through voltage-sensitive calcium channels was assessed by time-resolved monitoring of the fluorescence of pre-loaded intracellular calcium-sensitive dyes using FLIPR, a fluorescent image plate reader (Molecular Devices Co.). The IMR32 human neuroblastoma cell line (ATCC, CRL-127), expressing neuronal N-type calcium channels upon differentiation, was used for this assay. IMR32 cells were grown in MEM media (Gibco BRL, 11095-080), supplemented with 10% fetal bovine serum (Gibco BRL, 26140-087), 1% antibiotic-antimycotic (Gibco BRL, 15240-096), 1% L-glutamine (Gibco BRL, 25030-032). Cells, grown to confluency, were differentiated for a period of 7-10 days, or longer, by adding 1 mM dibutyryl cAMP (Sigma D-0627) and 2.5 μM 5-bromo-2-deoxyuridine (Sigma B-9285) to the media. The differentiation media was fed continuously to cells until the cells were used in an experiment.
Differentiated cells were removed from T150 flasks by aspirating media and adding 10 mL harvesting solution consisting of 0.5 mM EDTA in DPBS without calcium or magnesium (Gibco BRL, 14190-144). Cells were then centrifuged at 1500 rpm (≈500 g) for 3 minutes in a Beckman tabletop centrifuge in order to remove the harvesting solution. Cells were resuspended in 10 mL of media containing 1 μM Oregon Green 488 Bapta-1 dye (Molecular Probes, O-6807) and placed in a 37° C. shaking waterbath for 1 hour. The dye-containing media was then diluted with 40 mL buffer (composition in mM: 1.25 CaCl2, 1.2 MgSO4, 11 glucose, 10 HEPES, 3.0 KCl, 137.0 NaCl, pH 7.4 with Tris base) and cells were centrifuged at 1500 rpm (≈500 g) for 3 minutes. Cells were resuspended and washed a second time with 40-50 mL incubation buffer. After centrifugation, cells were resuspended and 200 μL aliquots were plated on black-sided 96-well plates (Costar, 3603) for use in FLIPR. The plates of cells were centrifuged at 750 rpm (≈100 g) for 1.5 minutes to settle the cells to the bottom of the wells. Cells were given one final wash at setting BF1F in a Denley Cellwash (Labsystems, CW018B). The residual buffer volume was adjusted to 50 μL. A 5-minute drug-preincubation period at 35° C. was initiated when 50 μL of drug-containing buffer was pipetted into the cell plate with the 96-well pipettor integrated in the FLIPR apparatus. Nitrendipine, at a concentration of 4 μM, was included in this buffer, in addition to compounds of the present invention at various concentrations. […] Fluorescent counts were monitored at 20 s intervals for 360 s, beginning 60 s prior to the delivery of drug-containing buffer. Following drug addition, 100 μL aliquots of a high K^+, depolarizing stimulus (composition in mM: 1.25 CaCl2, 1.2 MgSO4, 11 glucose, 10 HEPES, 140.0 KCl, pH 7.4 with Tris base) were added to each well, and fluorescence was monitored at 1 s intervals for 120 s, beginning 10 s prior to the stimulus addition. CCD camera exposure time was 0.4 s; laser excitation was at 488 nm with a power of 0.2-0.5W; and a 510 to 560 nm bandpass interference filter preceded the camera.
Data was analyzed as a summation of fluorescent counts above basal during the stimulation period (an approximation of area under the curve), after normalizing the data with a spatial uniformity correction (for variations in laser illumination and cell density) and a negative control correction (zero calcium increase defined as the fluorescence reading in the presence of saturating pharmacologic block of the N-type calcium channel). […] This component was not included in any calculations.
Drug effects were expressed as percent inhibition of fluorescence from an average of 8 K^+-stimulated wells which were pre-treated in the drug incubation period with buffer only. Data was analyzed using FLIPR software and Microsoft Excel spreadsheet software.

| Molecule | Anti-Writhing % Protection (dose) [1] [% @ 10 mg/kg] | IC50 [2] [nM] |
| --- | --- | --- |
| CN[C@@H](CNCCCC(c1ccc(F)cc1)c1ccc(F)cc1)CC(C)C [Example 77, (R)-N^1-[4,4-Bis-(4-fluoro-phenyl)-butyl]-4-N^2-dimethyl-pentane-1,2-diamine] | 43.4 | 2200 |
| CN[C@H](C(=O)NCCCC(c1ccc(F)cc1)c1ccc(F)cc1)C(C)C [Example 73, (S)-3-Methyl-2-methylamino-butanoic acid [4,4-bis-(4-fluorophenyl)-butyl]-amide monohydrochloride] | 90.4 | 3900 |
| CN[C@H](CC(C)C)C(=O)NCCCC(c1ccc(F)cc1)c1ccc(F)cc1 [Example 71, (R)-4-Methyl-2-methylamino-pentanoic acid [4,4-bis-(4-fluorophenyl)-butyl]-amide monohydrochloride] | 33.9 | 2500 |
| CC(C)CN(C)CC(=O)NCCCC(c1ccc(F)cc1)c1ccc(F)cc1 [Example 78, N-[4,4-Bis-(4-fluoro-phenyl)-butyl]-2-(isobutyl-methyl-amino)-acetamide] | 0 | 1600 |
| CC(C)C[C@H](O)C(=O)NCCCC(c1ccc(F)cc1)c1ccc(F)cc1 [Example 72, (S)-2-Hydroxy-4-methyl-pentanoic acid [4,4-bis-(4-fluoro-phenyl)-butyl]-amide] | – | 1900 |
| CNCC(=O)NCCCC(c1ccc(F)cc1)c1ccc(F)cc1 [Example 74, N-[4,4-Bis-(4-fluoro-phenyl)-butyl]-2-methylamino-acetamide] | – | 2900 |
| (S)-N^1-[4,4-Bis-(4-fluoro-phenyl)-butyl]-4-N^2-dimethyl-pentane-1,2-diamine [Example 76] | 20.9 | 2200 |
